According to ChEMBL document CHEMBL4376816, “Discovery of the Oral Leukotriene C4 Synthase Inhibitor (1S,2S)-2-({5-[(5-Chloro-2,4-difluorophenyl)(2-fluoro-2-methylpropyl)amino]-3-methoxypyrazin-2-yl}carbonyl)cyclopropanecarboxylic Acid (AZD9898) as a New Treatment for Asthma” (J Med Chem, 2019):

Legend:
[1] = Displacement of [3H]-GABA/[3]-muscimol from GABA gated chloride channel in Sprague-Dawley rat cortical synoptic membranes by liquid scintillation analysis
[2] = target: T1, A-type voltage-gated potassium channel KCND3 (Homo sapiens, UniProt Q9UK17); experiment: Inhibition of human Kv4.3 expressed in CHOK1 cells at < 33 uM at -80 mV holding potential by Ionwork-based analysis; assay type: cell-based
T1 sequence (Q9UK17 whole entry): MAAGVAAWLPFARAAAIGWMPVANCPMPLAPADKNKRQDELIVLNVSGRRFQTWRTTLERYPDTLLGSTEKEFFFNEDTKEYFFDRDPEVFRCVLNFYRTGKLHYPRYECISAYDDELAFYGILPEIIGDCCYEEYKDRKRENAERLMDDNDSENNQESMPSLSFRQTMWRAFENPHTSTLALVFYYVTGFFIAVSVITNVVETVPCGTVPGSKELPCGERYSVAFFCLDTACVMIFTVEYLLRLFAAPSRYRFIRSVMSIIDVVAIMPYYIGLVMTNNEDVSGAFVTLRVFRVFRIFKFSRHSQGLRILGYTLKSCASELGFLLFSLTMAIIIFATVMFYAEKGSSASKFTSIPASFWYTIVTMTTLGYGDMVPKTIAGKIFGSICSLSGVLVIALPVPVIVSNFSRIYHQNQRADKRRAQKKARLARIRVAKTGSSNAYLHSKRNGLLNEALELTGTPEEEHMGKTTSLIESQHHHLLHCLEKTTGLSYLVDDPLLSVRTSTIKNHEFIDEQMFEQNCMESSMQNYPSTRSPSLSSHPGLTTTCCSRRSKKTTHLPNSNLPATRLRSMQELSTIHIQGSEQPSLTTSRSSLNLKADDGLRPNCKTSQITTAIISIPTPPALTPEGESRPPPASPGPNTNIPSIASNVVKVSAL

COc1nc(N(CC(C)(C)F)c2cc(Cl)c(F)cc2F)cnc1C(=O)[C@H]1C[C@@H]1C(=O)O [AZD-9898]
IC50 [1]: > 100 µM | inhibition (INH) [2]: Not Active
